In patent publication US20090105217A1, “2-PHENYL-5-AMINO-1,3,4-OXADIAZOLES AND THEIR USE AS NICOTINIC ACETYLCHOLINE RECEPTOR LIGANDS” (priority 2007, published 2009):
Where a name gives a salt, the structure may show the parent alone.

Molecular target: T1, human α7 nAChR (Homo sapiens, UniProt P36544)
T1 construct: host or cells: GH4C1 cells (pituitary tumor, immortalized cell line)
Assay: α7 nAChR FLIPR (Fluorometric Imaging Plate Reader) Ca2+ assay, agonist EC50
Type: cell-based
Settings: for EC50: GH4C1 cells stably transfected with human α7 nAChR, Fluo-4 Ca2+ fluorescence, Examples 194 to 205 tested as the HCl salt, read-out: pEC50 value (negative logarithm of the agonist EC50) (converted); for activity in the alpha 7 assay: alpha 7 assay described in the Examples
Procedure: α7 nAChR FLIPR® (Fluorometric Imaging Plate Reader) Assay
Function of the heterologous expressed α7 nAChR was assessed by a FLIPR-Ca^2+ assay. Since nAChRs are non-selective cation channels with high permeability to Ca^2+, these studies were carried out by measuring changes of intracellular Ca^2+ concentration using the Ca^2+-chelating fluorescent dye Fluo-4 and FLIPR® (Fluorometric Imaging Plate Reader) technology.
GH4C1cells (pituitary tumor, immortalized cell line) stably transfected with human α7 nAChR (Biocat ID 96986), were thawed, suspended in growth medium (Ham's Nutrient Mixture F10—Ham's F10, Invitrogen 31550-023, 15% Horse Serum heat inactivated—Invitrogen 26050-047, 2.5% Foetal Bovine Serum—FBS, Gibco 10500-064, 200 μg/ml Hygromycin B—Invitrogen, 10687-010, 10 mg/L Phenol Red—Sigma, P 0290, 1 mM Glutamine—Invitrogen, 25030-024) and plated in 500 cm^2 Triple Flask.
Cells were then incubated at 30° C., 5% CO2 for 72 hours.
On the day of the experiment, cells were washed twice with Assay Buffer (AB) (145 mM NaCl, 5 mM KCl, 1 mM MgCl2, 2 mM CaCl2, 20 mM HEPES, 5.5 mM Glucose pH=7.3) containing 2.5 mM Probenecid. Changes in the intracellular Ca^2+ content of stably transfected cells were measured using the Ca^2+ chelating dye Fluo-4 (Tef Labs 0152) in conjunction with a FLIPR® (Molecular Devices). The cell permeant dye Fluo-4 was prepared to a concentration of 1 mM in 100% DMSO and 10% Pluronic acid. The dye was then diluted with AB to a final concentration of 2 μM and placed on the cells. After 45-60 minutes dye loading incubation at 37° C., the unincorporated dye was removed from the cells by washing (80 μL, 3 times) with AB, and a final volume of 30 μL/well of AB was left in each well.
Plates containing test compounds (dissolved in 100% DMSO at 2 mM and serially diluted with DMSO) were copied into “daughter” plates (1 μL/well dispensation). Just prior to starting the assay, the “daughter” plate was diluted with 50 μL/well of AB.
The plates were then placed in the FLIPR®, and cell fluorescence was determined before drug addition (30 seconds) and monitored (excitation 488 nm, emission 510-580 nm) immediately following exposure to compounds. Maximum fluorescence values were recorded and fitted for agonist EC50 calculations.
The results are expressed as pEC50 values. A pEC50 is the negative logarithm of the agonist EC50 calculation as determined in the α7 nAChR FLIPR® assay. […] Variations in pEC50 may arise between tests.

T1 sequence (P36544 23-502): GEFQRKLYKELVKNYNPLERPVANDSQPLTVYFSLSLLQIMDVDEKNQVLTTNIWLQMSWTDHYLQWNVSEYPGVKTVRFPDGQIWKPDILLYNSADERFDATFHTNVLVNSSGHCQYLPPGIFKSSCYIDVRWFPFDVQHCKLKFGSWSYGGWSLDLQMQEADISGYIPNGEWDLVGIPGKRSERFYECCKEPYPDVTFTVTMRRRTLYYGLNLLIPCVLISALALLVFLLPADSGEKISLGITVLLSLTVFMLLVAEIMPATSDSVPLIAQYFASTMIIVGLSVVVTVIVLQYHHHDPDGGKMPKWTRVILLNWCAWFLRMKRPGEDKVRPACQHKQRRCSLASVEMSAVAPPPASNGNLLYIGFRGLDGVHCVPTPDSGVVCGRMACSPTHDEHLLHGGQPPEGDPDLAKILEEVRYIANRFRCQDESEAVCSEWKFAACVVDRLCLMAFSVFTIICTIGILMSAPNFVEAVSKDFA

EC50 [µM] | activity in the alpha 7 assay | Structure (SMILES)
≤ 1 | – | O=C(Nc1ccc(-c2nnc(NCCCN3CCCC3)o2)c(F)c1)c1ccccc1F [Example 47, 2-fluoro-N-[3-fluoro-4-(5-{[3-(1-pyrrolidinyl)propyl]amino}-1,3,4-oxadiazol-2-yl)phenyl]benzamide]
≤ 0.1 | – | COc1cc(NC(=O)c2ccccc2)ccc1-c1nnc(NCCCCN2CCOCC2)o1 [Example 73, N-[3-(methyloxy)-4-(5-{[4-(4-morpholinyl)butyl]amino}-1,3,4-oxadiazol-2-yl)phenyl]benzamide]
≤ 0.1 | – | CCN(CC)CCCCNc1nnc(-c2ccc(NC(=O)c3ccccc3)cc2OC)o1 [Example 75, N-[4-(5-{[4-(diethylamino)butyl]amino}-1,3,4-oxadiazol-2-yl)-3-(methyloxy)phenyl]benzamide]
≤ 0.1 | – | O=C(Nc1ccc(-c2nnc(NCCCCN3CCCC3)o2)c(F)c1)C1CCCCC1 [Example 55, N-[3-fluoro-4-(5-{[4-(1-pyrrolidinyl)butyl]amino}-1,3,4-oxadiazol-2-yl)phenyl]cyclohexanecarboxamide]
≤ 1 | – | O=C(Nc1ccc(-c2nnc(NCCCCN3CCOCC3)o2)cc1)C1CCCCC1 [Example 148, N-[4-(5-{[4-(4-morpholinyl)butyl]amino}-1,3,4-oxadiazol-2-yl)phenyl]cyclohexanecarboxamide]
≤ 0.1 | – | O=C(Nc1ccc(-c2nnc(NCCCCN3CCCC3)o2)cc1)c1ccccc1 [Example 115, N-[4-(5-{[4-(1-pyrrolidinyl)butyl]amino}-1,3,4-oxadiazol-2-yl)phenyl]benzamide]
≤ 0.1 | – | COc1cc(NC(=O)c2ccccc2)ccc1-c1nnc(NCCCN2CCCCC2)o1 [Example 71, N-[3-(methyloxy)-4-(5-{[3-(1-piperidinyl)propyl]amino}-1,3,4-oxadiazol-2-yl)phenyl]benzamide]
≤ 1 | – | CCN(CC)CCCCNc1nnc(-c2ccc(NC(=O)C3CCCCC3)cc2C(F)(F)F)o1 [Example 68, N-[4-(5-{[4-(diethylamino)butyl]amino}-1,3,4-oxadiazol-2-yl)-3-(trifluoromethyl)phenyl]cyclohexanecarboxamide]
≤ 1 | – | O=C(Nc1ccc(-c2nnc(NCCCN3CCCCC3)o2)c(F)c1)c1ccccc1 [Example 113, N-[3-fluoro-4-(5-{[3-(1-piperidinyl)propyl]amino}-1,3,4-oxadiazol-2-yl)phenyl]benzamide]
≤ 0.1 | – | O=C(Nc1ccc(-c2nnc(NCCCCN3CCCC3)o2)c(F)c1)c1ccccc1 [Example 108, N-[3-fluoro-4-(5-{[4-(1-pyrrolidinyl)butyl]amino}-1,3,4-oxadiazol-2-yl)phenyl]benzamide]
≤ 0.1 | – | CCN(CC)CCCCNc1nnc(-c2ccc(NC(=O)c3ccccc3F)cc2OC)o1 [Example 52, N-[4-(5-{[4-(diethylamino)butyl]amino}-1,3,4-oxadiazol-2-yl)-3-(methyloxy)phenyl]-2-fluorobenzamide]
– | not found to have activity | O=C(Nc1ccc(-c2nnc(NCCCN3CCCC(F)(F)C3)o2)cc1)c1ccccc1F [N-[4-(5-{[3-(3,3-difluoro-1-piperidinyl)propyl]amino}-1,3,4-oxadiazol-2-yl)phenyl]-2-fluorobenzamide]
≤ 0.1 | – | O=C(Nc1ccc(-c2nnc(NCCCCN3CCCCC3)o2)c(F)c1)C1CCCCC1 [Example 54, N-[3-fluoro-4-(5-{[4-(1-piperidinyl)butyl]amino}-1,3,4-oxadiazol-2-yl)phenyl]cyclohexanecarboxamide]
≤ 1 | – | O=C(Nc1ccc(-c2nnc(NCCCN3CCCCC3)o2)cc1)c1ccccn1 [Example 17, N-[4-(5-{[3-(1-Piperidinyl)propyl]amino}-1,3,4-oxadiazol-2-yl)phenyl]-2-pyridinecarboxamidehydrochloride]
≤ 0.1 | – | O=C(Nc1ccc(-c2nnc(NCCCCN3CCOCC3)o2)c(Cl)c1)c1ccccc1F [Example 154, N-[3-chloro-4-(5-{[4-(4-morpholinyl)butyl]amino}-1,3,4-oxadiazol-2-yl)phenyl]-2-fluorobenzamide]
≤ 1 | – | O=C(Nc1ccc(-c2nnc(NCCCN3CCCC3)o2)c(Cl)c1)c1ccccc1 [Example 99]

EC50 [µM] | activity in the alpha 7 assay | Structure (SMILES)
≤ 0.1 | – | O=C(Nc1ccc(-c2nnc(NCCCCN3CCCCC3)o2)c(Cl)c1)c1ccccc1 [Example 106, N-[3-chloro-4-(5-{[4-(1-piperidinyl)butyl]amino}-1,3,4-oxadiazol-2-yl)phenyl]benzamide]
≤ 1 | – | CCN(CC)CCCNc1nnc(-c2ccc(NC(=O)c3ccccc3)cc2F)o1 [Example 111, N-[4-(5-{[3-(diethylamino)propyl]amino}-1,3,4-oxadiazol-2-yl)-3-fluorophenyl]benzamide]
≤ 1 | – | COc1cc(NC(=O)C2CCCCC2)ccc1-c1nnc(NCCCN2CCOCC2)o1 [Example 79, N-[3-(methyloxy)-4-(5-{[3-(4-morpholinyl)propyl]amino}-1,3,4-oxadiazol-2-yl)phenyl]cyclohexanecarboxamide]
≤ 1 | – | O=C(Nc1ccc(-c2nnc(NCCCN3CCCC3)o2)cc1)C1CCCCC1 [Example 146, N-[4-(5-{[3-(1-pyrrolidinyl)propyl]amino}-1,3,4-oxadiazol-2-yl)phenyl]cyclohexanecarboxamide]
≤ 1 | – | O=C(Nc1ccc(-c2nnc(NCCCN3CCCC3)o2)c(Cl)c1)c1ccccc1F [Example 165, N-[3-chloro-4-(5-{[3-(1-pyrrolidinyl)propyl]amino}-1,3,4-oxadiazol-2-yl)phenyl]-2-fluorobenzamide]
≤ 1 | – | CCN(CC)CCCNc1nnc(-c2ccc(NC(=O)c3ccc(OC)cc3)cc2OC)o1 [Example 225, N-[4-(5-{[3-(diethylamino)propyl]amino}-1,3,4-oxadiazol-2-yl)-3-(methyloxy)phenyl]-4-(methyloxy)benzamidetrifluoroacetate]
≤ 1 | – | CCN(CC)CCCNc1nnc(-c2ccc(NC(=O)C3CCCCC3)cc2F)o1 [Example 59, N-[4-(5-{[3-(diethylamino)propyl]amino}-1,3,4-oxadiazol-2-yl)-3-fluorophenyl]cyclohexanecarboxamide]
≤ 1 | – | O=C(Nc1ccc(-c2nnc(NCCCN3CCOCC3)o2)cc1)c1c(F)cccc1F [Example 194, 2,6-Difluoro-N-[4-(5-{[3-(4-morpholinyl)propyl]amino}-1,3,4-oxadiazol-2-yl)phenyl]benzamide]
≤ 1 | – | CCC(C)N(C)CCCNc1nnc(-c2ccc(NC(=O)c3ccccc3F)cc2)o1 (stereo not shown) [Example 136, 2-fluoro-N-{4-[5-({3-[methyl(1-methylpropyl)amino]propyl}amino)-1,3,4-oxadiazol-2-yl]phenyl}benzamide]
≤ 0.1 | – | CCc1cc(NC(=O)c2ccccc2F)ccc1-c1nnc(NCCCCN2CCOCC2)o1 [Example 172, N-[3-ethyl-4-(5-{[4-(4-morpholinyl)butyl]amino}-1,3,4-oxadiazol-2-yl)phenyl]-2-fluorobenzamide]
≤ 0.1 | – | CCN(CC)CCCCNc1nnc(-c2ccc(NC(=O)c3ccccc3)cc2Cl)o1 [Example 104, N-[3-chloro-4-(5-{[4-(diethylamino)butyl]amino}-1,3,4-oxadiazol-2-yl)phenyl]benzamide]
≤ 1 | – | O=C(Nc1ccc(-c2nnc(NCCCN3CCOCC3)o2)c(C(F)(F)F)c1)c1ccccc1 [Example 93, N-[4-(5-{[3-(4-morpholinyl)propyl]amino}-1,3,4-oxadiazol-2-yl)-3-(trifluoromethyl)phenyl]benzamide]
– | not found to have activity | CC(C)(C)C(=O)Nc1ccc(-c2nnc(NCCCN3CCCCC3)o2)cc1 [2,2-dimethyl-N-[4-(5-{[3-(1-piperidinyl)propyl]amino}-1,3,4-oxadiazol-2-yl)phenyl]propanamide]
≤ 1 | – | CN(CCCNc1nnc(-c2ccc(NC(=O)c3ccccc3F)cc2)o1)C1CCCC1 [Example 137, N-{4-[5-({3-[cyclopentyl(methyl)amino]propyl}amino)-1,3,4-oxadiazol-2-yl]phenyl}-2-fluorobenzamide]
≤ 1 | – | O=C(Nc1ccc(-c2nnc(NCCCN3CCCCC3)o2)cc1)C1CCOCC1 [Example 193, N-[4-(5-{[3-(1-piperidinyl)propyl]amino}-1,3,4-oxadiazol-2-yl)phenyl]tetrahydro-2H-pyran-4-carboxamide]
